Reference: US20230125667A1, “NOVEL TDZD ANALOGS AS AGENTS THAT DELAY, PREVENT, OR REVERSE AGE-ASSOCIATED DISEASES AND AS ANTI-CANCER AND ANTILEUKEMIC AGENTS” (United States Government as represented by the Department …, priority 2020, published 2023)
Like-named read-outs stand apart in the source and are kept apart here.

Legend:
786-0 = experiment: NCI-60 growth inhibition: 786-0 (Renal Cancer); assay type: cell-based, human
COLO 205 = experiment: NCI-60 growth inhibition: COLO 205 (Colon Cancer); assay type: cell-based, human
MDA-MB-435 = experiment: NCI-60 growth inhibition: MDA-MB-435 (Melanoma); assay type: cell-based, human
UACC-257 = experiment: NCI-60 growth inhibition: UACC-257 (Melanoma); assay type: cell-based, human
DU-145 = experiment: NCI-60 growth inhibition: DU-145 (Prostate Cancer); assay type: cell-based, human
HCT-15 = experiment: NCI-60 growth inhibition: HCT-15 (Colon Cancer); assay type: cell-based, human
CCRF-CEM = experiment: NCI-60 growth inhibition: CCRF-CEM (Leukemia); assay type: cell-based, human
HS 578T = experiment: NCI-60 growth inhibition: HS 578T (Breast Cancer); assay type: cell-based, human
BT-549 = experiment: NCI-60 growth inhibition: BT-549 (Breast Cancer); assay type: cell-based, human
SR = experiment: NCI-60 growth inhibition: SR (Leukemia); assay type: cell-based, human
UO-31 = experiment: NCI-60 growth inhibition: UO-31 (Renal Cancer); assay type: cell-based, human
MDA-MB-468 = experiment: NCI-60 growth inhibition: MDA-MB-468 (Breast Cancer); assay type: cell-based, human; conditions: MDA-MB-468 (Breast Cancer), read-out: GI50
SN12C = experiment: NCI-60 growth inhibition: SN12C (Renal Cancer); assay type: cell-based, human
[1] = tested on: MV4-11 cell line (myelomonocytic leukemia); conditions: MV4-11 cells; for LD50, 7AAD (μM) 24 h / LD50, Alamar blue (μM) 24 h / LD50, YOPRO (μM) 24 h: MMB-TDZD analogs (Table 2); for LD50: values in text
RPMI-8226 = experiment: NCI-60 growth inhibition: RPMI-8226 (Leukemia); assay type: cell-based, human
SNB-75 = experiment: NCI-60 growth inhibition: SNB-75 (CNS Cancer); assay type: cell-based, human
SW-620 = experiment: NCI-60 growth inhibition: SW-620 (Colon Cancer); assay type: cell-based, human
OVCAR-5 = experiment: NCI-60 growth inhibition: OVCAR-5 (Ovarian Cancer); assay type: cell-based, human
NCI-H522 = experiment: NCI-60 growth inhibition: NCI-H522 (Non-Small-Cell Lung Cancer)
MDA-MB-231/ATCC = experiment: NCI-60 growth inhibition: MDA-MB-231/ATCC (Breast Cancer); assay type: cell-based, human
U251 = experiment: NCI-60 growth inhibition: U251 (CNS Cancer); assay type: cell-based, human
TK-10 = experiment: NCI-60 growth inhibition: TK-10 (Renal Cancer); assay type: cell-based, human
NCI-H460 = experiment: NCI-60 growth inhibition: NCI-H460 (Non-Small-Cell Lung Cancer); assay type: cell-based, human
OVCAR-8 = experiment: NCI-60 growth inhibition: OVCAR-8 (Ovarian Cancer); assay type: cell-based, human
ACHN = experiment: NCI-60 growth inhibition: ACHN (Renal Cancer); assay type: cell-based, human
NCI-H23 = experiment: NCI-60 growth inhibition: NCI-H23 (Non-Small-Cell Lung Cancer); assay type: cell-based, human
A498 = experiment: NCI-60 growth inhibition: A498 (Renal Cancer); assay type: cell-based, human
MOLT-4 = experiment: NCI-60 growth inhibition: MOLT-4 (Leukemia); assay type: cell-based, human
SF-268 = experiment: NCI-60 growth inhibition: SF-268 (CNS Cancer); assay type: cell-based, human
SK-MEL-5 = experiment: NCI-60 growth inhibition: SK-MEL-5 (Melanoma); assay type: cell-based, human
OVCAR-4 = experiment: NCI-60 growth inhibition: OVCAR-4 (Ovarian Cancer); assay type: cell-based, human
EKVX = experiment: NCI-60 growth inhibition: EKVX (Non-Small-Cell Lung Cancer); assay type: cell-based, human
M14 = experiment: NCI-60 growth inhibition: M14 (Melanoma); assay type: cell-based, human
HOP-92 = experiment: NCI-60 growth inhibition: HOP-92 (Non-Small-Cell Lung Cancer); assay type: cell-based, human
UACC-62 = experiment: NCI-60 growth inhibition: UACC-62 (Melanoma); assay type: cell-based, human
SNB-19 = experiment: NCI-60 growth inhibition: SNB-19 (CNS Cancer); assay type: cell-based, human
HL-60(TB) = experiment: NCI-60 growth inhibition: HL-60(TB) (Leukemia); assay type: cell-based, human; conditions: HL-60(TB) (Leukemia), read-out: GI50
SK-MEL-2 = experiment: NCI-60 growth inhibition: SK-MEL-2 (Melanoma); assay type: cell-based, human
HT29 = experiment: NCI-60 growth inhibition: HT29 (Colon Cancer); assay type: cell-based, human
LOX IMVI = experiment: NCI-60 growth inhibition: LOX IMVI (Melanoma); assay type: cell-based, human
SK-MEL-28 = experiment: NCI-60 growth inhibition: SK-MEL-28 (Melanoma); assay type: cell-based, human
MCF7 = experiment: NCI-60 growth inhibition: MCF7 (Breast Cancer); assay type: cell-based, human
MALME-3M = experiment: NCI-60 growth inhibition: MALME-3M (Melanoma); assay type: cell-based, human
SF-539 = experiment: NCI-60 growth inhibition: SF-539 (CNS Cancer); assay type: cell-based, human
T-47D = experiment: NCI-60 growth inhibition: T-47D (Breast Cancer); assay type: cell-based, human
PC-3 = experiment: NCI-60 growth inhibition: PC-3 (Prostate Cancer); assay type: cell-based, human
IGROV1 = experiment: NCI-60 growth inhibition: IGROV1 (Ovarian Cancer); assay type: cell-based, human
OVCAR-3 = experiment: NCI-60 growth inhibition: OVCAR-3 (Ovarian Cancer); assay type: cell-based, human
HCT-116 = experiment: NCI-60 growth inhibition: HCT-116 (Colon Cancer)
CAKI-1 = experiment: NCI-60 growth inhibition: CAKI-1 (Renal Cancer); assay type: cell-based, human

C=C1C(=O)O[C@H]2[C@H]1CC/C(COC(=O)NCc1ccc(Cn3c(=O)sn(CCCCC)c3=O)cc1)=C\CC[C@@]1(C)O[C@@H]21 [BSK-218]
GI50 (786-0): 1.98 µM | GI50 (COLO 205): 1.78 µM | GI50 (MDA-MB-435): 1.71 µM | GI50 (UACC-257): 1.57 µM | GI50 (DU-145): 1.68 µM | GI50 (HCT-15): 1.66 µM | GI50 (CCRF-CEM): 0.36 µM | GI50 (HS 578T): 2.79 µM | GI50 (BT-549): 1.91 µM | GI50 (SR): 2.99 µM | GI50 (UO-31): 1.46 µM | GI50 (MDA-MB-468): 1.19 µM | GI50 (SN12C): 1.71 µM | LD50, 7AAD (μM) 24 h [1]: 1.3 µM | LD50, Alamar blue (μM) 24 h [1]: 0.8 µM | LD50, YOPRO (μM) 24 h [1]: 1.07 µM | LD50 [1]: 760 nM | GI50 (RPMI-8226): 1.12 µM | GI50 (SNB-75): 1.59 µM | GI50 (SW-620): 1.31 µM | GI50 (OVCAR-5): 2.01 µM | GI50 (NCI-H522; NCI-H522 (Non-Small-Cell Lung Cancer)): 1.59 µM | GI50 (MDA-MB-231/ATCC): 1.72 µM | GI50 (U251): 2.2 µM | GI50 (TK-10): 1.96 µM | GI50 (NCI-H460): 3.42 µM | GI50 (OVCAR-8): 2.26 µM | GI50 (ACHN): 1.68 µM | GI50 (NCI-H23): 1.94 µM | GI50 (A498): 2.91 µM | GI50 (MOLT-4): 5.9 µM | GI50 (SF-268): 1.88 µM | GI50 (SK-MEL-5): 3.92 µM | GI50 (OVCAR-4): 1.62 µM | GI50 (EKVX): 1.85 µM | GI50 (M14): 1.89 µM | GI50 (HOP-92): 1.38 µM | GI50 (UACC-62): 1.59 µM | GI50 (SNB-19): 5.06 µM | GI50 (HL-60(TB)): 1.1 µM | GI50 (SK-MEL-2): 2.42 µM | GI50 (HT29): 2.09 µM | GI50 (LOX IMVI): 1.59 µM | GI50 (SK-MEL-28): 1.85 µM | GI50 (MCF7): 1.79 µM | GI50 (MALME-3M): 1.61 µM | GI50 (SF-539): 1.64 µM | GI50 (T-47D): 1.75 µM | GI50 (PC-3): 1.92 µM | GI50 (IGROV1): 2.11 µM | GI50 (OVCAR-3): 1.41 µM | GI50 (HCT-116; HCT-116 (Colon Cancer)): 1.73 µM | GI50 (CAKI-1): 2.84 µM

C=C1C(=O)O[C@H]2[C@H]1CC/C(COC(=O)NCc1ccc(Cn3c(=O)sn(-c4ccc(OC)cc4)c3=O)cc1)=C\CC[C@@]1(C)O[C@@H]21 [BSK-271]
GI50 (786-0; Homo sapiens): 2.05 µM | GI50 (COLO 205; Homo sapiens): 1.85 µM | GI50 (MDA-MB-435; Homo sapiens): 1.83 µM | GI50 (UACC-257; Homo sapiens): 2.03 µM | GI50 (DU-145; Homo sapiens): 1.81 µM | GI50 (HCT-15; Homo sapiens): 1.68 µM | GI50 (CCRF-CEM; Homo sapiens): 0.56 µM | GI50 (HS 578T; Homo sapiens): 2.92 µM | GI50 (BT-549; Homo sapiens): 4.37 µM | GI50 (SR; Homo sapiens): 0.53 µM | GI50 (UO-31; Homo sapiens): 1.56 µM | GI50 (MDA-MB-468; Homo sapiens): 1.53 µM | GI50 (SN12C; Homo sapiens): 2.14 µM | LD50, 7AAD (μM) 24 h [1]: 1.74 µM | LD50, Alamar blue (μM) 24 h [1]: 1.20 µM | LD50, YOPRO (μM) 24 h [1]: 2.07 µM | LD50 [1]: 680 nM | GI50 (RPMI-8226; Homo sapiens): 2.01 µM | GI50 (SNB-75; Homo sapiens): 3.44 µM | GI50 (SW-620; Homo sapiens): 1.77 µM | GI50 (OVCAR-5; Homo sapiens): 2.06 µM | GI50 (NCI-H522; Homo sapiens, NCI-H522): 1.67 µM | GI50 (MDA-MB-231/ATCC; Homo sapiens): 1.97 µM | GI50 (U251; Homo sapiens, U-251): 4.11 µM | GI50 (TK-10; Homo sapiens): 1.91 µM | GI50 (NCI-H460; Homo sapiens): 3.7 µM | GI50 (OVCAR-8; Homo sapiens): 2.37 µM | GI50 (ACHN; Homo sapiens): 1.73 µM | GI50 (NCI-H23; Homo sapiens): 2.97 µM | GI50 (A498; Homo sapiens): 5.65 µM | GI50 (MOLT-4; Homo sapiens): 1.93 µM | GI50 (SF-268; Homo sapiens): 3.14 µM | GI50 (SK-MEL-5; Homo sapiens): 12 µM | GI50 (OVCAR-4; Homo sapiens): 1.64 µM | GI50 (EKVX; Homo sapiens): 3.5 µM | GI50 (M14; Homo sapiens): 2.19 µM | GI50 (HOP-92; Homo sapiens): 1.61 µM | GI50 (UACC-62; Homo sapiens): 1.86 µM | GI50 (SNB-19; Homo sapiens): 11.7 µM | GI50 (HL-60(TB); Homo sapiens): 2.12 µM | GI50 (SK-MEL-2; Homo sapiens): 3.19 µM | GI50 (HT29; Homo sapiens, HT-29): 1.96 µM | GI50 (LOX IMVI; Homo sapiens): 1.73 µM | GI50 (SK-MEL-28; Homo sapiens): 1.97 µM | GI50 (MCF7; Homo sapiens): 1.77 µM | GI50 (MALME-3M; Homo sapiens): 1.81 µM | GI50 (SF-539; Homo sapiens): 1.96 µM | GI50 (T-47D; Homo sapiens, T47D): 1.86 µM | GI50 (PC-3; Homo sapiens): 2.19 µM | GI50 (IGROV1; Homo sapiens, IGROV-1): 2.85 µM | GI50 (OVCAR-3; Homo sapiens): 1.61 µM | GI50 (HCT-116; Homo sapiens, HCT-116): 1.93 µM | GI50 (CAKI-1; Homo sapiens): 2.34 µM
